In EP4603105A1, “PHARMACEUTICAL COMPOSITION CONTAINING CYCLIC COMPOUND HAVING SELECTIVE KRAS INHIBITORY EFFECT AGAINST HRAS AND NRAS” (CHUGAI SEIYAKU KABUSHIKI KAISHA, priority 2022, dated 2024):

Key:
[1] = molecular target: HRAS wild-type protein (Homo sapiens, UniProt P01112); assay: Binding to HRAS by surface plasmon resonance (SPR), KD and KD ratio to KRAS; details: ratio of KD for HRAS wild-type protein to KD for KRAS
Outline: (§1)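 Single-cycle kinetics on GDP-loaded biotin-Avi RAS captured to ~100–300 RU; 75 s ascending injections, 100 µL/min, 30°C. HBS pH 7.4 + 10 mM MgCl2/10 µM GDP/4% DMSO. 1:1 fit, KD.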

[2] = molecular target: GDP-bound NRAS wild-type protein (Homo sapiens, UniProt P01111); assay: Binding to NRAS by surface plasmon resonance (SPR), KD and KD ratio to KRAS; details: ratio of KD for GDP-bound NRAS wild-type protein to KD for KRAS
Chain of GDP-bound NRAS wild-type protein (P01111 whole entry): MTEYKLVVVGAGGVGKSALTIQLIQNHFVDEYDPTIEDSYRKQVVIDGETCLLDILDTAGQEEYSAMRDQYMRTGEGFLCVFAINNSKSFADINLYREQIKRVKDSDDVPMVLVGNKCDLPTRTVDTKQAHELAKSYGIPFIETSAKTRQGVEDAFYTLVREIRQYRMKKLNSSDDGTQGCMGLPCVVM
Outline: as §1

[3] = tested on: human lung cancer strain NCI-H441; type: cell-based
Outline: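 Proliferation was scored by […] measured after the reagent was added to cultures kept at 37°C in 5% carbon dioxide.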

Chain of HRAS wild-type protein (P01112 whole entry): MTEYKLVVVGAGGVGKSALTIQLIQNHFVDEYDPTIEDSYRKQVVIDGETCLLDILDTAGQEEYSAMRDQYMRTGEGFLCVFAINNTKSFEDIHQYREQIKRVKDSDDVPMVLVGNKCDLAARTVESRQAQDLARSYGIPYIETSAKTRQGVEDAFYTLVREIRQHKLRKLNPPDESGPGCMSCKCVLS

Compound	HRAS /KRAS [1]	NRAS /KRAS [2]	IC50 [3] [µM]
CCO[C@@H]1C[C@H]2C(=O)NC3(CCC3)C(=O)N(C)[C@@H](C3CCCC3)C(=O)N(C)[C@H](C(=O)N(C)C)CC(=O)N(C)[C@@H](CC)C(=O)N[C@@H]([C@@H](C)CC)C(=O)N(C)CC(=O)N(C)[C@H]3C[C@H]4C[C@H]4CN(C3=O)[C@@H](Cc3ccc(C(F)(F)F)cc3)C(=O)N(C)CC(=O)N[C@@H](CCc3cc(F)c(C(F)(F)F)c(F)c3)C(=O)N2C1 [PP0830]	C (A compound having a KD ratio of 0.1 or more and less than 3 is denoted as C)	C (A compound having a KD ratio of 0.1 or more and less than 3 is denoted as C)	0.0034
CCO[C@@H]1C[C@H]2C(=O)NC3(CC(F)(F)C3)C(=O)N(C)[C@@H](C3CCCC3)C(=O)N(C)[C@H](C(=O)N3CCOCC3)CC(=O)N(C)[C@@H](CC(C)C)C(=O)N[C@@H]([C@@H](C)CC)C(=O)N(C)CC(=O)N(C)[C@H]3C[C@H]4C[C@H]4CN(C3=O)[C@@H](Cc3ccc(C(F)(F)F)cc3)C(=O)N(C)CC(=O)N[C@@H](CCc3cc(F)c(C(F)(F)F)c(F)c3)C(=O)N2C1 [PP0831]	C (A compound having a KD ratio of 0.1 or more and less than 3 is denoted as C)	C (A compound having a KD ratio of 0.1 or more and less than 3 is denoted as C)	0.0037
CCO[C@@H]1C[C@H]2C(=O)NC3(CCC3)C(=O)N(C)[C@@H](C3CCCC3)C(=O)N(C)[C@H](C(=O)N3CCOCC3)CC(=O)N(C)[C@@H](CC(C)C)C(=O)N[C@@H]([C@@H](C)CC)C(=O)N(C)CC(=O)N(C)[C@H]3CC=CCN(C3=O)[C@@H](Cc3ccc(C(F)(F)F)cc3)C(=O)N(C)CC(=O)N[C@@H](CCc3cc(F)c(C(F)(F)F)c(F)c3)C(=O)N2C1 [PP0832]	C (A compound having a KD ratio of 0.1 or more and less than 3 is denoted as C)	C (A compound having a KD ratio of 0.1 or more and less than 3 is denoted as C)	0.0215
CC[C@H](C)[C@@H]1NC(=O)[C@H](COC)N(C)C(=O)C[C@@H](C(=O)N2CCOCC2)N(C)C(=O)[C@H](C2CCCC2)N(C)C(=O)C2(CCC2)NC(=O)[C@@H]2C[C@H](OC)CN2C(=O)[C@H](CCc2cc(F)c(C(F)(F)F)c(F)c2)NC(=O)CN(C)C(=O)[C@H](Cc2ccc(C(F)(F)F)cc2)N2CCCCC[C@@H](C2=O)N(C)C(=O)CN(C)C1=O [PP0836]	B (a compound having 3 or more and less than 10 is denoted as B)	B (a compound having 3 or more and less than 10 is denoted as B)	0.36
CC[C@H](C)[C@@H]1NC(=O)[C@H](COC)N(C)C(=O)C[C@@H](C(=O)N2CCOCC2)N(C)C(=O)[C@H](C2CCCC2)N(C)C(=O)C2(CCC2)NC(=O)[C@@H]2C[C@@H](OC)CN2C(=O)[C@H](CCc2cc(F)c(C(F)(F)F)c(F)c2)NC(=O)CN(C)C(=O)[C@H](Cc2ccc(C(F)(F)F)cc2)N2CCCCC[C@@H](C2=O)N(C)C(=O)CN(C)C1=O [PP0837]	B (a compound having 3 or more and less than 10 is denoted as B)	B (a compound having 3 or more and less than 10 is denoted as B)	0.0634
CCCO[C@@H]1C[C@H]2C(=O)NC3(CCC3)C(=O)N(C)[C@@H](C3CCCC3)C(=O)N(C)[C@H](C(=O)N3CCOCC3)CC(=O)N(C)[C@@H](COC)C(=O)N[C@@H]([C@@H](C)CC)C(=O)N(C)CC(=O)N(C)[C@H]3CCCCCN(C3=O)[C@@H](Cc3ccc(C(F)(F)F)cc3)C(=O)N(C)CC(=O)N[C@@H](CCc3cc(F)c(C(F)(F)F)c(F)c3)C(=O)N2C1 [PP0838]	B (a compound having 3 or more and less than 10 is denoted as B)	B (a compound having 3 or more and less than 10 is denoted as B)	0.0504
